Measurements as given in patent publication US20120269815A1, “NEUROTROPHINS AND USES THEREOF” (Regents of the University of Minnesota, priority 2008, published 2012).
No end group written: not given here.

Assays:
[1] = system: primary culture hypothalamic neurons; assay: Activated-Caspase 3 expression in serum-deprived primary cultured hypothalamic neurons; type: cell-based, mouse; settings: 48-hour serum deprivation; 50 nM TUF1[43-54] or 500 ng/ml anti-TUF1[43-54] IgG; preliminary qualitative analysis
Procedure: Gestational day 16.5 mouse embryos were collected from deeply anesthetized pregnant dam (i.p. injection of 10 mg/Kg Beuthanasia). Embryos were placed in HAM F12+10% Fetal Calf Serum (FCS)+1 mg/ml glucose. Whole brains were dissected and placed in a dish containing Phosphate Buffer Saline (PBS)+1 mg/ml glucose+10 mM HEPES. Hypothalami were dissected from embryonic brains and placed into a conical tube containing 2 ml HAM F12+10 mg/ml Glucose+10 mM HEPES. Cells were dissociated by pipetting and then centrifuged at 200×g for 5 minutes. Cells were suspended in culture medium (HAM F12+10% FCS+10 mg/ml glucose+10 mM HEPES+[…]) and plated at 200,000 cells/25 mm flask. Plated cells were incubated for four days in humidified incubator maintained at 37° C. and 5% CO2 (NuAire NU-8600, NuAire, Inc., Plymouth, Minn.).
To gain insight into the survival effect of TUF1[43-54] polypeptide, serum deprivation was used as a stressor. […] Cells were assessed for activated-Caspase 3 expression by immunocytochemistry after 48-hour incubation.
Cultured cells were rinsed with PBS (2×), fixed with 4% Paraformaldehyde (5 minutes) and permeabilized with PBS+0.1% Tween-20 (PBST). […] Excess antibody was removed by PBST and labeled cells were detected using IMMPACT DAB chromogen (Vector Laboratories, Inc., Burlingame, Calif.) per manufacturer's recommendation.

[2] = Fear-potentiated startle after ICV TUF1 peptide infusion; type: in vivo, rat; settings: adult male rats
Procedure: (§1) a) Intra-cerebroventricular (ICV) Cannulation Male Sprague-Dawley rats weighing 250-400 grams were anesthetized with ketamine (100 mg/kg) and xylazine (7 mg/kg) and placed in a stereotaxic device (David Kopf Instruments Corp., Tunjunga, Calif.) using atraumatic ear bars. An incision of the skin overlying the skull was made and anchor screws were inserted into the skull. Burr holes were drilled to allow the guide cannula to pass into the brain. The guide cannula (22-gauge, C313G; Plastics One, Roanoke, Va.) was placed at 0 mm posterior, 1.2 mm lateral and 3.5 mm ventral to bregma. The cannula was affixed using epoxy glue (Loctite 444; McMaster-Carr, Chicago, Ill.) followed by dental acrylic (Hygienic perm reline & repair resin, Type II, Class I; Henry Schein, Inc., Melville, N.Y.). The cannula was sealed and kept open by insertion of a ‘dummy’ cannula. […]
(§2) For fear potentiated startle, shock sensitization, and prepulse inhibition testing, animals were trained and tested in four identical 7.5 cm×9 cm×17 cm stabilimeter devices. […] Shock intensity was measured with a 1-kΩ resistor across a differential channel of an oscilloscope in series with a 100-kΩ resistor connected between two floor bars in each cage. Current was defined as the RMS voltage across the resistor and calculated in mA as 0.707×0.5 ×peak-to-peak voltage. […]

[3] = Prepulse inhibition of startle after ICV TUF1 peptide infusion; type: in vivo, rat; settings: adult male rats, 1.0 μg or 10 μg ICV
Procedure: as §1, §2

Sequence: AYKSYVRALPLL [TUF1[43-54]]
- cell death (activated-Caspase 3) following serum-deprivation [1]: fewer cell death
- shock reactivity ([2]; 1.0 μg or 10 μg ICV): No effect
- fear potentiated startle ([2]; 1.0 μg or 10 μg via lateral ventricle cannulae, vs control subjects): reduced fear potentiated startle
- pre-pulse inhibition [3]: No effect
